Measured values from PubChem BioAssay (NCI).
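Each compound was tested at five concentrations against cells in 96-well plates for 48 hours. GI50 = concentration required for 50% inhibition of growth. TGI: total growth inhibition.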

What follows are compounds tested on BT-549 breast (assay: NCI anticancer screen, dose series, 48 h).

| SMILES | GI50 [µM] | TGI [µM] |
| --- | --- | --- |
| C[C@@H]1O[C@@H](OC[C@H]2O[C@@H](OCCc3ccc(O)c(O)c3)[C@H](O)[C@@H](O)[C@@H]2OC(=O)/C=C/c2ccc(O)c(O)c2)[C@H](O)[C@H](O)[C@H]1O | 24.5 | 54.3 |
| CCn1c2ccccc2c2cc(/C=C(/C#N)C(N)=O)ccc21 | 0.938 | 44.7 |
| CCN1C(=O)N(CC)C2C1NN=c1s/c(=C3\C(=O)N(CCc4ccccc4)c4ccccc43)c(=O)n12 (stereo not drawn) | 1.49 | 4.97 |
| CN(C)c1ccc(N=Nc2ccncc2)cc1 | – | > 100 |
| CC1(C)N=C(N)N=C(N)N1c1ccc(CCCCc2ccc(S(=O)(=O)F)cc2)c(Cl)c1 | 9.61 | 22.5 |
| N#CN1CC[C@H](C(=O)Nc2ncc(-c3ccncc3)s2)C1 | < 0.0116 | 0.188 |
| Cn1cc(-c2nonc2-c2cn(C)c3ccccc23)c2ccccc21 | 1.37 | > 100 |
| CN(CCCCCl)P(=O)(OCCS(=O)(=O)CC(NC(=O)CCC(N)C(=O)O)C(=O)NC(C(=O)O)c1ccccc1)OCC1OC(n2cc(F)c(=O)[nH]c2=O)CC1O (stereo not drawn) | 15.3 | > 94.7 |
| CCN(CCO)CC(C)Nc1ccc([N+](=O)[O-])c2sc3ccccc3c(=O)c12 (stereo not drawn) | 2.1 | 13.1 |
| O=[N+]([O-])c1cc(S(=O)(=O)Oc2ccccc2)ccc1Cl | 5.43 | 17 |
| COC(=O)c1nc(-c2ccccc2)oc1S(=O)(=O)n1nc(C)cc1N | 10.8 | 23.2 |
| CCCCCn1sc(=O)n(Cc2ccc(CNC(=O)OCc3ccc4cccc(O)c4n3)cc2)c1=O | 1.44 | 3.65 |
| Cn1cncc1CC1COC(=O)C1C(O)c1ccccc1 (stereo not drawn) | – | > 100 |
| CCCCn1c(=O)c2c(nc3n2CCCN3CCc2ccc(OCC(=O)NCCN(CC)CC)cc2)n(CCCC)c1=O | 2.55 | 8.85 |

The compounds below were run on HCT-15 colon (assay: NCI anticancer screen, dose series, 48 h).

| SMILES | GI50 [µM] | TGI [µM] |
| --- | --- | --- |
| C[C@@H]1O[C@@H](OC[C@H]2O[C@@H](OCCc3ccc(O)c(O)c3)[C@H](O)[C@@H](O)[C@@H]2OC(=O)/C=C/c2ccc(O)c(O)c2)[C@H](O)[C@H](O)[C@H]1O | > 100 | > 100 |
| CCn1c2ccccc2c2cc(/C=C(/C#N)C(N)=O)ccc21 | 14.8 | > 100 |
| CCN1C(=O)N(CC)C2C1NN=c1s/c(=C3\C(=O)N(CCc4ccccc4)c4ccccc43)c(=O)n12 (stereo not drawn) | 0.351 | > 34.2 |
| CN(C)c1ccc(N=Nc2ccncc2)cc1 | – | > 100 |
| CC1(C)N=C(N)N=C(N)N1c1ccc(CCCCc2ccc(S(=O)(=O)F)cc2)c(Cl)c1 | 0.593 | > 100 |
| N#CN1CC[C@H](C(=O)Nc2ncc(-c3ccncc3)s2)C1 | < 0.021 | > 100 |
| Cn1cc(-c2nonc2-c2cn(C)c3ccccc23)c2ccccc21 | 0.537 | > 100 |
| CN(CCCCCl)P(=O)(OCCS(=O)(=O)CC(NC(=O)CCC(N)C(=O)O)C(=O)NC(C(=O)O)c1ccccc1)OCC1OC(n2cc(F)c(=O)[nH]c2=O)CC1O (stereo not drawn) | 1.32 | 46.6 |
| CCN(CCO)CC(C)Nc1ccc([N+](=O)[O-])c2sc3ccccc3c(=O)c12 (stereo not drawn) | 1.76 | > 100 |
| O=[N+]([O-])c1cc(S(=O)(=O)Oc2ccccc2)ccc1Cl | 3.56 | 12.5 |
| COC(=O)c1nc(-c2ccccc2)oc1S(=O)(=O)n1nc(C)cc1N | 4.51 | 17.8 |
| CCCCCn1sc(=O)n(Cc2ccc(CNC(=O)OCc3ccc4cccc(O)c4n3)cc2)c1=O | 1.44 | 4.81 |
| Cn1cncc1CC1COC(=O)C1C(O)c1ccccc1 (stereo not drawn) | – | > 100 |
| CCCCn1c(=O)c2c(nc3n2CCCN3CCc2ccc(OCC(=O)NCCN(CC)CC)cc2)n(CCCC)c1=O | 1.11 | 3.47 |

The compounds below were run on HL-60(TB) leukemia (assay: NCI anticancer screen, dose series, 48 h).

| SMILES | GI50 [µM] | TGI [µM] |
| --- | --- | --- |
| C[C@@H]1O[C@@H](OC[C@H]2O[C@@H](OCCc3ccc(O)c(O)c3)[C@H](O)[C@@H](O)[C@@H]2OC(=O)/C=C/c2ccc(O)c(O)c2)[C@H](O)[C@H](O)[C@H]1O | > 100 | > 100 |
| CCn1c2ccccc2c2cc(/C=C(/C#N)C(N)=O)ccc21 | 4.76 | > 67.3 |
| CCN1C(=O)N(CC)C2C1NN=c1s/c(=C3\C(=O)N(CCc4ccccc4)c4ccccc43)c(=O)n12 (stereo not drawn) | 0.538 | 1.56 |
| CN(C)c1ccc(N=Nc2ccncc2)cc1 | – | > 100 |
| CC1(C)N=C(N)N=C(N)N1c1ccc(CCCCc2ccc(S(=O)(=O)F)cc2)c(Cl)c1 | 0.181 | 23.6 |
| N#CN1CC[C@H](C(=O)Nc2ncc(-c3ccncc3)s2)C1 | < 0.0171 | < 0.028 |
| Cn1cc(-c2nonc2-c2cn(C)c3ccccc23)c2ccccc21 | 0.483 | 1.72 |
| CN(CCCCCl)P(=O)(OCCS(=O)(=O)CC(NC(=O)CCC(N)C(=O)O)C(=O)NC(C(=O)O)c1ccccc1)OCC1OC(n2cc(F)c(=O)[nH]c2=O)CC1O (stereo not drawn) | 4.87 | 31.3 |
| CCN(CCO)CC(C)Nc1ccc([N+](=O)[O-])c2sc3ccccc3c(=O)c12 (stereo not drawn) | 0.917 | 4 |
| O=[N+]([O-])c1cc(S(=O)(=O)Oc2ccccc2)ccc1Cl | 1.92 | 6.84 |
| COC(=O)c1nc(-c2ccccc2)oc1S(=O)(=O)n1nc(C)cc1N | 3.02 | 12.5 |
| CCCCCn1sc(=O)n(Cc2ccc(CNC(=O)OCc3ccc4cccc(O)c4n3)cc2)c1=O | 2.88 | > 100 |
| Cn1cncc1CC1COC(=O)C1C(O)c1ccccc1 (stereo not drawn) | – | > 100 |
| CCCCn1c(=O)c2c(nc3n2CCCN3CCc2ccc(OCC(=O)NCCN(CC)CC)cc2)n(CCCC)c1=O | 5.97 | 15.6 |

The compounds below were run on HS 578T breast (assay: NCI anticancer screen, dose series, 48 h).

| SMILES | GI50 [µM] | TGI [µM] |
| --- | --- | --- |
| C[C@@H]1O[C@@H](OC[C@H]2O[C@@H](OCCc3ccc(O)c(O)c3)[C@H](O)[C@@H](O)[C@@H]2OC(=O)/C=C/c2ccc(O)c(O)c2)[C@H](O)[C@H](O)[C@H]1O | > 100 | > 100 |
| CCn1c2ccccc2c2cc(/C=C(/C#N)C(N)=O)ccc21 | 5.69 | 39.7 |
| CCN1C(=O)N(CC)C2C1NN=c1s/c(=C3\C(=O)N(CCc4ccccc4)c4ccccc43)c(=O)n12 (stereo not drawn) | 0.449 | 6.37 |
| CN(C)c1ccc(N=Nc2ccncc2)cc1 | – | > 100 |
| CC1(C)N=C(N)N=C(N)N1c1ccc(CCCCc2ccc(S(=O)(=O)F)cc2)c(Cl)c1 | 9.27 | 32.1 |
| N#CN1CC[C@H](C(=O)Nc2ncc(-c3ccncc3)s2)C1 | 0.0948 | 4.66 |
| Cn1cc(-c2nonc2-c2cn(C)c3ccccc23)c2ccccc21 | 0.508 | 24.6 |
| CN(CCCCCl)P(=O)(OCCS(=O)(=O)CC(NC(=O)CCC(N)C(=O)O)C(=O)NC(C(=O)O)c1ccccc1)OCC1OC(n2cc(F)c(=O)[nH]c2=O)CC1O (stereo not drawn) | 5.89 | 97.6 |
| CCN(CCO)CC(C)Nc1ccc([N+](=O)[O-])c2sc3ccccc3c(=O)c12 (stereo not drawn) | 1.75 | 10.5 |
| O=[N+]([O-])c1cc(S(=O)(=O)Oc2ccccc2)ccc1Cl | 2.7 | 6.73 |
| COC(=O)c1nc(-c2ccccc2)oc1S(=O)(=O)n1nc(C)cc1N | 25.8 | 90.2 |
| CCCCCn1sc(=O)n(Cc2ccc(CNC(=O)OCc3ccc4cccc(O)c4n3)cc2)c1=O | 2.17 | 6.73 |
| Cn1cncc1CC1COC(=O)C1C(O)c1ccccc1 (stereo not drawn) | – | > 100 |
| CCCCn1c(=O)c2c(nc3n2CCCN3CCc2ccc(OCC(=O)NCCN(CC)CC)cc2)n(CCCC)c1=O | 1.76 | 11.2 |

What follows are compounds tested on KM12 colon (assay: NCI anticancer screen, dose series, 48 h).

| SMILES | GI50 [µM] | TGI [µM] |
| --- | --- | --- |
| C[C@@H]1O[C@@H](OC[C@H]2O[C@@H](OCCc3ccc(O)c(O)c3)[C@H](O)[C@@H](O)[C@@H]2OC(=O)/C=C/c2ccc(O)c(O)c2)[C@H](O)[C@H](O)[C@H]1O | > 100 | > 100 |
| CCn1c2ccccc2c2cc(/C=C(/C#N)C(N)=O)ccc21 | 13.5 | > 100 |
| CCN1C(=O)N(CC)C2C1NN=c1s/c(=C3\C(=O)N(CCc4ccccc4)c4ccccc43)c(=O)n12 (stereo not drawn) | 0.38 | 11.2 |
| CN(C)c1ccc(N=Nc2ccncc2)cc1 | – | > 100 |
| CC1(C)N=C(N)N=C(N)N1c1ccc(CCCCc2ccc(S(=O)(=O)F)cc2)c(Cl)c1 | 0.454 | 15.2 |
| N#CN1CC[C@H](C(=O)Nc2ncc(-c3ccncc3)s2)C1 | < 0.0213 | 3.44 |
| Cn1cc(-c2nonc2-c2cn(C)c3ccccc23)c2ccccc21 | 0.661 | > 100 |
| CN(CCCCCl)P(=O)(OCCS(=O)(=O)CC(NC(=O)CCC(N)C(=O)O)C(=O)NC(C(=O)O)c1ccccc1)OCC1OC(n2cc(F)c(=O)[nH]c2=O)CC1O (stereo not drawn) | 13.3 | > 78 |
| CCN(CCO)CC(C)Nc1ccc([N+](=O)[O-])c2sc3ccccc3c(=O)c12 (stereo not drawn) | 1.47 | 4 |
| O=[N+]([O-])c1cc(S(=O)(=O)Oc2ccccc2)ccc1Cl | 1.47 | 2.89 |
| COC(=O)c1nc(-c2ccccc2)oc1S(=O)(=O)n1nc(C)cc1N | 16.9 | 32.4 |
| CCCCCn1sc(=O)n(Cc2ccc(CNC(=O)OCc3ccc4cccc(O)c4n3)cc2)c1=O | 2.78 | 8.91 |
| Cn1cncc1CC1COC(=O)C1C(O)c1ccccc1 (stereo not drawn) | – | > 100 |
